Assay results reported in patent US8519154B2, “Method for treatment of bronchial asthma” (Council of Scientific & Industrial Research, priority 2011, dated 2013).

Experiments:
[1] = system: BALB/c mice sensitized and challenged with ovalbumin (OVA); experiment: Airway responsiveness to methacholine in mouse model of asthma; type: in vivo
Procedure: Present invention describes the efficacy of compound I in vivo mouse model of asthma. BALB/c mice were sensitized and challenged with ovalbumin (OVA) as shown in scheme 2 to develop asthmatic features such as airway hyperreactivity (AHR) to methacholine (MCh).
Mice were sensitized with 0.2 ml PBS containing 50 μg ovalbumin (OVA) (Sigma, USA) and 4 mg aluminum hydroxide in saline intraperitonially (i.p.) on days 0, 7 and 14 as shown in scheme 2. Sham group mice were sensitized with only alum dissolved in PBS. From day 21 to 30, mice were exposed to aerosol of OVA (3%) inhalation 25 minutes daily in a Plexiglas chamber (20×20×10 cm^3). The aerosol was generated by a nebulizer (OMRON CX, model) with an airflow rate of 9 L/minute. Sham group mice were challenged with PBS alone. […]
Airway responsiveness was measured by barometric plethysmography using whole-body plethysmography (WBP; Buxco, Troy, N.Y.) 12 hours after last saline or ovalbumin challenge. […] Enhanced pause (Penh) to methacholine as measured using barometric plethysmography is a valid indicator of bronchoconstriction in mice and can be used to measure AHR. […] Readings were taken and averaged for 5 minutes from the starting time of nebulisation. Airway responsiveness to MCh was evaluated by the concentration of MCh required to increase the Pen H to twice the baseline value (MCh PC200).

rats = experiment: Bile secretion; type: in vivo
Procedure: Rats were anaesthetized with urethane (25% w/v; 0.6 ml/100 g bw, ip). A catheter was placed in the jugular vein for Compound I administration. Abdominal cavity was opened by midline incision and the common bile duct was cannulated to measure the biliary secretion which was collected over 2 hours duration. The total bile excreted was compared between control (untreated) and Compound I treated rats [Shetler, T., Bendele, A., Buening, M., Clemens, J., Colbert, W., Deldar, A., Helton, D., Mc Grath J., Shannon, H., Turk, J., Williams, P., General Pharmacology of Loracarbef in Animals. Arzneim-Forsch./Drug Res. 43 (1993) 1-6].

[2] = system: OVA sensitized and challenged mice, lung sections; experiment: Histological analysis of lung inflammation in mouse model of asthma; type: in vivo; details: H&E lung sections
Procedure: To determine the effect of Compound I on airway inflammation, histopathological analysis of formalin fixed, paraffin embedded lung sections was performed. The excised lung portion was fixed in 10% buffered formalin. The fixed, paraffin embedded tissue were sectioned into 4 μm sections and stained with Hematoxylin & Eosin (H&E) to assess inflammation

PDE-4 = experiment: Phosphodiesterase 4 assay, [3H]cAMP SPA enzyme assay, enzyme preparation from rat heart; type: biochemical
Procedure: For phosphodiesterase (PDE-4) assay, enzyme preparations were performed from rat heart (Ko et al 2004, Biochemical Pharmacology 68:2087-2094). Heart was excised from anesthetized rat and transfer into normal saline solution. Heart weighing 687 mg was taken and homogenized in 2.5 volumes of homogenization buffer containing 20 mM Tris-Cl, 50 mM NaCl, 2 mM EDTA, 0.1 mM PMSF, […], protease inhibitors 1 μg/μl. The homogenate was centrifuged at 500×g for 5 minute at 4° C. Then sup was taken for further centrifuged at 40,000×g for 30 minute (ultra centrifugation). After centrifugation supernatant was collected for phosphodiesterase assay. Protein concentration was estimated and for each assay, 2.5 μg protein (PDE enzyme preparation) was used. All compounds tested for PDE 4 activity were dissolved in DMSO.
Phosphodiesterase 4 assay: Phosphodiesterase 4 assay was conducted with [^3H] cAMP SPA enzyme assay (GE Amersham, UK) using 2.5 μg enzyme preparation for each well. Into each well 60 μl water, 10 μl assay buffer supplied with the kit, 10 μl compound (inhibitor), 10 μl PDE enzyme or homogenizing buffer (blank) and […] radiolabel led cAMP ([^3H]cAMP, GE Amersham, UK) were added. To check activity of the enzyme without inhibitor (compound) 10 μl DMSO was added in place of inhibitor to a separate well. The reaction mixtures were incubated for […] at 30° C. The reaction was stopped by adding 50 μl SPA bead supplied with the kit. It was then mixed well and allowed to stand at room temperature for 20 min. Breakdown of cAMP in each tube was monitored by β counter. The reading in each tube was obtained in counts per minute (CPM). The reading of the blank tube (without enzyme) was subtracted from each tube to normalize the counts. The enzyme activity was calculated by considering the CPM reading without any inhibitor (compound) as 100.

COc1cc(C=O)cc2c1[nH]c1ccccc12 [Compound I, 1-methoxy-3-formyl-9H carbazole]
MChPC200 (airway hyper-responsiveness) ([1]; 0.1, 1 and 10 mg/kg orally twice per day): significantly attenuated the decrease in MChPC200
dose with maximum effect on MChPC200 ([1]; orally twice per day): 10 mg/kg
Bile (grams ± SEM) After (rats; 25 mg/kg i.v.): 1.390 ± 0.06 grams
Bile (grams ± SEM) Before (rats; 25 mg/kg i.v.): 1.285 ± 0.049 grams
Bile (grams ± SEM) After (rats; 50 mg/kg i.v.): 1.125 ± 0.125 grams
Bile (grams ± SEM) Before (rats; 50 mg/kg i.v.): 1.305 ± 0.145 grams
change in the mass of bile collected (rats; 25 and 50 mg/kg intravenously): no significant change in the mass of bile collected
perivascular and peribronchial inflammation [2]: reduced both perivascular and peribronchial inflammation in a dose dependent manner
% of Inhibition (PDE-4; 0.1 μg/ml): 1.4%
% of Inhibition (PDE-4; 1 μg/ml): 34.7%
% of Inhibition (PDE-4; 10 μg/ml): 73.1%
IC50 (PDE-4; compound of natural origin (extraction from plants)): 20 µM
extent of inhibition of PDE 4 activity (PDE-4; compound of natural origin, compared with rolipram): comparable to known PDE 4 inhibitor, rolipram
IC50 (PDE-4; synthetically prepared compound (chemical origin)): 0.05 µM
